Experiments:
Format in all cases: cell-based
[1] = test system: beneficial oral bacteria and pathogenic oral bacteria; assay: Metabolic activity, prebiotic effect over the whole panel; conditions: for prebiotic effect (metabolic activity): threshold value of 2
Description: (§1) The extent of metabolic activity of the tested bacteria in the presence of the above-mentioned acids after 24 hours and 48 hours was investigated through a high throughput phenotype microarray system (PM) for microbial cells (Biolog Inc.). Each PM can contain up to 95 different biochemical compounds (e.g. organic acids) that may act as substrates for bacteria as well as one negative control, not containing the substrates. Microarray plates were used in which the different wells of each plate were pre-loaded (by the manufacturer, Biolog Inc.) with different organic acids to be tested. Each bacterial species was tested using a separate microarray plate. Thus, a single bacterial species was tested with a variety of organic acids on each particular plate. The microarrays are based on redox technology, using cell respiration as a universal reporter. […] The observation of this color change indicates which of the substrates improve the metabolic activity and health of the cells.
(§2) Each bacterial species was collected from blood agar plates (incubated for 48 hours anaerobically at 37° C.) and transferred to an IF-0 Base inoculation fluid (Biolog Inc.), which is a nutritionally poor medium. […] A 1:5 dilution of this suspension was prepared by mixing 3 mL of the 42% transmittance cell suspension with 15 mL of an inoculation fluid (which inoculation fluid was formed by mixing 11.6 mL sterile water, 62.5 mL IF-0 base inoculation fluid and 0.9 mL of the tetrazolium dye “Biolog Redox Dye mix D”), resulting in a final cell density which was equal to 85% transmittance using a BioRad SmartSpec 3000 Photometer. For each of the acids tested, the microarray plate (obtained from the supplier (Biolog Inc.) with acid already present in the relevant wells in powder form) was directly inoculated with 100 μL/well of this 85% transmittance cell suspension.
(§3) All plates were incubated in an anaerobic atmosphere at 37° C. Color changes were measured spectrophotometrically at 492 nm (Thermo Scientific Multiskan Ascent) at 24 hrs and 48 hrs using the same plate at both time points.
(§4) The controls were also carried out three times, as above.

[2] = test system: Prevotella intermedia; assay: Metabolic activity, Biolog phenotype microarray; conditions: P intermedia
Description: as §1, §2, §3, §4

[3] = test system: Aggregatibacter actinomycetemcomitans; assay: Metabolic activity, Biolog phenotype microarray; conditions: A actinomycetemcomitans
Description: as §1, §2, §3, §4

[4] = test system: Streptococcus gordonii; assay: Metabolic activity, Biolog phenotype microarray; conditions: S gordonii
Description: as §1, §2, §3, §4

[5] = test system: Actinomyces naeslundii; assay: Metabolic activity, Biolog phenotype microarray; conditions: A naeslundii
Description: as §1, §2, §3, §4

[6] = test system: Capnocytophaga sputigena; assay: Metabolic activity, Biolog phenotype microarray; conditions: C sputigena
Description: as §1, §2, §3, §4

[7] = test system: Streptococcus mutans; assay: Metabolic activity, Biolog phenotype microarray; conditions: S mutans
Description: as §1, §2, §3, §4

[8] = test system: Streptococcus sanguinis; assay: Metabolic activity, Biolog phenotype microarray; conditions: S sanguinis
Description: as §1, §2, §3, §4

[9] = test system: Streptococcus sobrinus; assay: Metabolic activity, Biolog phenotype microarray; conditions: S sobrinus
Description: as §1, §2, §3, §4

[10] = test system: Veillonella parvula; assay: Metabolic activity, Biolog phenotype microarray; conditions: V parvula
Description: as §1, §2, §3, §4

[11] = test system: Fusobacterium nucleatum; assay: Metabolic activity, Biolog phenotype microarray; conditions: F nucleatum
Description: as §1, §2, §3, §4

[12] = test system: Porphyromonas gingivalis; assay: Metabolic activity, Biolog phenotype microarray; conditions: P gingivalis
Description: as §1, §2, §3, §4

[13] = test system: Streptococcus salivarius; assay: Metabolic activity, Biolog phenotype microarray; conditions: S salivarius
Description: as §1, §2, §3, §4

[14] = test system: Tannerella forsythia; assay: Metabolic activity, Biolog phenotype microarray; conditions: T forsythia
Description: as §1, §2, §3, §4

[15] = test system: Streptococcus mitis; assay: Metabolic activity, Biolog phenotype microarray; conditions: S mitis
Description: as §1, §2, §3, §4

[16] = test system: Actinomyces viscosus; assay: Metabolic activity, Biolog phenotype microarray; conditions: A viscosus
Description: as §1, §2, §3, §4

| SMILES | metabolic activity, OD at 492 nm divided by OD of control (control = 1) ([2]; 24 hrs) | metabolic activity, OD at 492 nm divided by OD of control (control = 1) ([2]; 48 hrs) | metabolic activity, OD at 492 nm divided by OD of control (control = 1) ([3]; 24 hrs) | metabolic activity, OD at 492 nm divided by OD of control (control = 1) ([3]; 48 hrs) | metabolic activity, OD at 492 nm divided by OD of control (control = 1) ([4]; 24 hrs) | metabolic activity, OD at 492 nm divided by OD of control (control = 1) ([4]; 48 hrs) | metabolic activity, OD at 492 nm divided by OD of control (control = 1) ([5]; 24 hrs) | metabolic activity, OD at 492 nm divided by OD of control (control = 1) ([5]; 48 hrs) | metabolic activity, OD at 492 nm divided by OD of control (control = 1) ([6]; 24 hrs) | metabolic activity, OD at 492 nm divided by OD of control (control = 1) ([6]; 48 hrs) | metabolic activity, OD at 492 nm divided by OD of control (control = 1) ([7]; 24 hrs) | metabolic activity, OD at 492 nm divided by OD of control (control = 1) ([7]; 48 hrs) | metabolic activity, OD at 492 nm divided by OD of control (control = 1) ([8]; 24 hrs) | metabolic activity, OD at 492 nm divided by OD of control (control = 1) ([8]; 48 hrs) | metabolic activity, OD at 492 nm divided by OD of control (control = 1) ([9]; 24 hrs) | metabolic activity, OD at 492 nm divided by OD of control (control = 1) ([9]; 48 hrs) | metabolic activity, OD at 492 nm divided by OD of control (control = 1) ([10]; 24 hrs) | metabolic activity, OD at 492 nm divided by OD of control (control = 1) ([10]; 48 hrs) | metabolic activity, OD at 492 nm divided by OD of control (control = 1) ([11]; 24 hrs) | metabolic activity, OD at 492 nm divided by OD of control (control = 1) ([11]; 48 hrs) | also measured |
| --- | --- | --- | --- | --- | --- | --- | --- | --- | --- | --- | --- | --- | --- | --- | --- | --- | --- | --- | --- | --- | --- |
| CC(=O)O [Acetic acid, acetic acid] |  |  |  |  |  |  |  |  |  |  |  |  |  |  |  |  |  |  |  |  | prebiotic effect (metabolic activity) ([1]; 48 hrs): exhibited prebiotic effects |
| O=C(O)CC(O)(CC(=O)O)C(=O)O [Citric acid, citric acid] | 0.9626 | 0.8872 | 1.3098 | 1.4736 | 0.9010 | 0.7481 | 0.8551 | 0.7965 | 0.5992 | 0.8818 | 1.1156 | 1.0700 | 0.8938 | 0.8704 | 0.9828 | 0.8769 | 1.2832 | 2.0488 | 0.7626 | 0.6603 | metabolic activity, OD at 492 nm divided by OD of control (control = 1) ([12]; 24 hrs): 0.8443; metabolic activity, OD at 492 nm divided by OD of control (control = 1) ([12]; 48 hrs): 0.8692; metabolic activity, OD at 492 nm divided by OD of control (control = 1) ([13]; 24 hrs): 0.9935; metabolic activity, OD at 492 nm divided by OD of control (control = 1) ([13]; 48 hrs): 0.9148; metabolic activity, OD at 492 nm divided by OD of control (control = 1) ([14]; 24 hrs): 0.9320; metabolic activity, OD at 492 nm divided by OD of control (control = 1) ([14]; 48 hrs): 0.8510; metabolic activity, OD at 492 nm divided by OD of control (control = 1) ([15]; 24 hrs): 1.0814; metabolic activity, OD at 492 nm divided by OD of control (control = 1) ([15]; 48 hrs): 0.8953; metabolic activity, OD at 492 nm divided by OD of control (control = 1) ([16]; 24 hrs): 0.9333; metabolic activity, OD at 492 nm divided by OD of control (control = 1) ([16]; 48 hrs): 0.9052; prebiotic effect (metabolic activity) ([1]; 48 hrs): exhibited prebiotic effects |
| C[C@H](O)C(=O)O [L-lactic acid] | 0.9628 | 0.9344 | 1.7850 | 2.2055 | 0.7156 | 0.6821 | 1.6747 | 1.8440 | 1.4435 | 1.1474 | 0.8885 | 0.8138 | 0.9076 | 0.8849 | 0.8282 | 0.7747 | 3.4930 | 3.0003 | 0.8008 | 0.7884 | metabolic activity, OD at 492 nm divided by OD of control (control = 1) ([12]; 24 hrs): 0.7480; metabolic activity, OD at 492 nm divided by OD of control (control = 1) ([12]; 48 hrs): 0.7325; metabolic activity, OD at 492 nm divided by OD of control (control = 1) ([13]; 24 hrs): 0.9183; metabolic activity, OD at 492 nm divided by OD of control (control = 1) ([13]; 48 hrs): 0.8317; metabolic activity, OD at 492 nm divided by OD of control (control = 1) ([14]; 24 hrs): 0.8509; metabolic activity, OD at 492 nm divided by OD of control (control = 1) ([14]; 48 hrs): 0.8314; metabolic activity, OD at 492 nm divided by OD of control (control = 1) ([15]; 24 hrs): 1.0230; metabolic activity, OD at 492 nm divided by OD of control (control = 1) ([15]; 48 hrs): 0.9098; metabolic activity, OD at 492 nm divided by OD of control (control = 1) ([16]; 24 hrs): 1.5404; metabolic activity, OD at 492 nm divided by OD of control (control = 1) ([16]; 48 hrs): 1.7915; prebiotic effect (metabolic activity) ([1]; 24 hrs): exhibited prebiotic effects; speed of metabolism by beneficial versus pathogenic bacteria ([1]; value of 2 reached at 24 hrs for the beneficial but not the pathogenic bacteria): metabolized faster by the beneficial bacteria than by the pathogenic bacteria |
| COC(=O)CCC(=O)O [Mono methyl succinate, mono methyl succinate] | 1.0197 | 1.0603 | 0.9321 | 1.0787 | 0.8102 | 0.7556 | 0.8880 | 0.8882 | 0.8328 | 0.9842 | 0.9482 | 0.8864 | 0.8806 | 0.8453 | 0.9731 | 0.9118 | 2.0008 | 2.0023 | 0.8349 | 0.7615 | metabolic activity, OD at 492 nm divided by OD of control (control = 1) ([12]; 24 hrs): 0.7502; metabolic activity, OD at 492 nm divided by OD of control (control = 1) ([12]; 48 hrs): 0.6747; metabolic activity, OD at 492 nm divided by OD of control (control = 1) ([13]; 24 hrs): 0.9553; metabolic activity, OD at 492 nm divided by OD of control (control = 1) ([13]; 48 hrs): 0.8641; metabolic activity, OD at 492 nm divided by OD of control (control = 1) ([14]; 24 hrs): 0.8922; metabolic activity, OD at 492 nm divided by OD of control (control = 1) ([14]; 48 hrs): 0.8775; metabolic activity, OD at 492 nm divided by OD of control (control = 1) ([15]; 24 hrs): 1.0231; metabolic activity, OD at 492 nm divided by OD of control (control = 1) ([15]; 48 hrs): 0.9293; metabolic activity, OD at 492 nm divided by OD of control (control = 1) ([16]; 24 hrs): 0.9911; metabolic activity, OD at 492 nm divided by OD of control (control = 1) ([16]; 48 hrs): 1.0314 |
